From patent US9233136B2, “4-amino-4-oxobutanoyl peptides as inhibitors of viral replication” (Achillion Pharmaceuticals, Inc., priority 2006, dated 2016)

Tested on: Hepatitis C replicon in Huh-7 cells
Experiment: HCV replicon replication assay (NPT ELISA)
Assay type: cell-based
Conditions: Hepatitis C virus, Huh-7, 72 h
Protocol: Compounds claimed herein are tested for the ability to inhibit viral replication of the Hepatitis C replicon in cultured cells in which the HCV replicon construct has been incorporated. The HCV replicon system was described by Bartenschlager, et. al (Science, 285, pp. 110-113 (1999)). The replicon system is predictive of in vivo anti-HCV activity; compounds that are active in humans uniformly evidence activity in the replicon assay.
In this assay HCV replicon containing cells are treated with different concentrations of the test compound to ascertain the ability of the test compound to suppress replication of the HCV replicon. As a positive control, HCV replicon-containing cells are treated with different concentrations of interferon alpha, a known inhibitor of HCV replication. The replicon assay system includes Neomycin Phosphotransferase (NPT) as a component of the replicon itself in order to detect the transcription of replicon gene products in the host cell. Cells in which the HCV replicon is actively replicating have high levels of NPT; the level of NPT is proportional to HCV replication. […] The NPT level of each sample is measured using a captured ELISA.
A protocol for testing compounds for the ability to inhibit viral replication of the Hepatitis C replicon cultured cells in which the replicon construct has been incorporated, follows.
The HCV replicon contains, 5′-3′, the HCV-IRES, the neomycin phosphotransferase (neo) gene, the IRES of encephalomyocarditis virus, which directs translation of HCV sequences NS3 to NS5B, and the 3′-NTR. The sequence of the HCV replicon has been deposited in GenBank (Accession no. AJ242652).
The replicon is transfected into Huh-7 cells using standard methods such as electroporation.
The cells are then seeded onto 96-well plates at a density of 6000-7500 cells/100 microliters/well (6-7.5×10^5 cells/10 ml/plate). The plates are then incubated at 37° C. in a 5% CO2 incubator.
HCV replicon-containing cells are rinsed with once PBS once; 2 mls of trypsin are then added. Cells are incubated at 37° C. in a 5% CO2 incubator for 3-5 minutes. 10 mls of complete medium is added to stop the reaction. Cells are blown gently, put into a 15 ml tube, and spun at 1200 rpm for four minutes. The trypsin/medium solution is removed and 5 mls of medium (500 ml DMEM (high glucose)) from BRL catalog #12430-054; 50 mls 10% FBS, 5% Geneticin G418 (50 mg/ml, BRL catalog #10131-035), 5 ml MEM non-essential amino acids (100×BRL #11140-050) and 5 ml pen-strep (BRL #15140-148) is added. The cells and media are mixed carefully
Cells are plated with screening medium (500 ml DMEM (BRL #21063-029), 50 ml FBS (BRL #10082-147) and 5 ml MEM non-essential amino acid (BRL #11140-050) at 6000-7500 fcells/100 μl/well of 96 well plate (6-7.5×10^5 cells/10 ml/plate). Plates are placed into 37° C. 5% CO2 incubator overnight.
The following morning, drugs (test compounds or interferon alpha) are diluted in 96 well U bottom plates with media or DMSO/media, depending on the final concentration chosen for screening. Generally for 6 concentrations of each test compounds ranging from 10 micromolar to 0.03 micromolar are applied. 100 μl of the test compound dilution is placed in wells of the 96 well plate containing the HCV replicon cells. Media without drug is added to some wells as a negative controls. DMSO is known to affect cell growth. Therefore, if drugs diluted in DMSO are used, all wells, including negative control (media only) and positive control (interferon alpha) wells, must contain the same concentration of DMSO, for single dose screening. The plates are incubated at 37° C. in a humidified 5% CO2 environment for three days.
On day four, the NTPII assay is quantitated. The medium is poured from the plates and the plates are washed once in 200 μl of PBS. The PBS is then decanted and the plates tapped in a paper towel to remove any remaining PBS. […]

| Structure (SMILES) | EC50 |
| --- | --- |
| C=CC1CC1(NC(=O)[C@@H]1C[C@@H](Oc2cc(-c3ccccc3)nc3cc(OC)ccc23)CN1C(=O)[C@@H](CC(=O)N1CCCC1)C(C)(C)C)C(=O)O (stereo partly drawn) [Compound 38, 1-((2S,4R)-1-((S)-2-tert-butyl-4-oxo-4-(pyrrolidin-1-yl)butanoyl)-4-(7-methoxy-2-phenylquinolin-4-yloxy)pyrrolidine-2-carboxamido)-2-vinylcyclopropanecarboxylic acid] | > 10 µM |
| C=CC1CC1(NC(=O)[C@@H]1C[C@@H](Oc2cc(-c3ccccc3)nc3cc(OC)ccc23)CN1C(=O)[C@@H](CC(=O)N1CCCC1)C(C)(C)C)C(=O)OCC (stereo partly drawn) [Compound 39, ethyl 1-((2S,4R)-1-((S)-2-tert-butyl-4-oxo-4-(pyrrolidin-1-yl)butanoyl)-4-(7-methoxy-2-phenylquinolin-4-yloxy)pyrrolidine-2-carboxamido)-2-vinylcyclopropanecarboxylate] | > 10 µM |
| C=CC1CC1(NC(=O)[C@@H]1C[C@@H](Oc2cc(-c3ccccc3)nc3cc(OC)ccc23)CN1C(=O)[C@@H](CC(=O)N1CCCCC1)C(C)(C)C)C(=O)OCC (stereo partly drawn) [Compound 40, ethyl 1-((2S,4R)-1-((S)-2-tert-butyl-4-oxo-4-(piperidin-1-yl)butanoyl)-4-(7-methoxy-2-phenylquinolin-4-yloxy)pyrrolidine-2-carboxamido)-2-vinylcyclopropanecarboxylate] | > 10 µM |
| C=CC1CC1(NC(=O)[C@@H]1C[C@@H](Oc2cc(-c3ccccc3)nc3cc(OC)ccc23)CN1C(=O)[C@@H](CC(=O)N1CCCCC1)C(C)(C)C)C(=O)O (stereo partly drawn) [Compound 41, 1-((2S,4R)-1-((S)-2-tert-butyl-4-oxo-4-(piperidin-1-yl)butanoyl)-4-(7-methoxy-2-phenylquinolin-4-yloxy)pyrrolidine-2-carboxamido)-2-vinylcyclopropanecarboxylic acid] | 1 to 10 µM |
| C=CC1CC1(NC(=O)[C@@H]1C[C@@H](Oc2cc(-c3ccccc3)nc3cc(OC)ccc23)CN1C(=O)[C@@H](CC(=O)N1CCC(O)C1)C(C)(C)C)C(=O)O (stereo partly drawn) [Compound 42, 1-((2S,4R)-1-((2S)-2-tert-butyl-4-(3-hydroxypyrrolidin-1-yl)-4-oxobutanoyl)-4-(7-methoxy-2-phenylquinolin-4-yloxy)pyrrolidine-2-carboxamido)-2-vinylcyclopropanecarboxylic acid] | > 10 µM |
| C=CC1CC1(NC(=O)[C@@H]1C[C@@H](Oc2cc(-c3ccccc3)nc3cc(OC)ccc23)CN1C(=O)[C@@H](CC(=O)N1CCN(C)CC1)C(C)(C)C)C(=O)O (stereo partly drawn) [Compound 43, 1-((2S,4R)-1-((S)-2-tert-butyl-4-(4-methylpiperazin-1-yl)-4-oxobutanoyl)-4-(7-methoxy-2-phenylquinolin-4-yloxy)pyrrolidine-2-carboxamido)-2-vinylcyclopropanecarboxylic acid] | > 10 µM |
| C=CC1CC1(NC(=O)[C@@H]1C[C@@H](Oc2cc(-c3ccccc3)nc3cc(OC)ccc23)CN1C(=O)[C@@H](CC(=O)N1CCCCC1C(N)=O)C(C)(C)C)C(=O)O (stereo partly drawn) [Compound 44, 1-((2S,4R)-1-((2S)-2-tert-butyl-4-(2-carbamoylpiperidin-1-yl)-4-oxobutanoyl)-4-(7-methoxy-2-phenylquinolin-4-yloxy)pyrrolidine-2-carboxamido)-2-vinylcyclopropanecarboxylic acid] | > 10 µM |
| C=CC1CC1(NC(=O)[C@@H]1C[C@@H](Oc2cc(-c3ccccc3)nc3cc(OC)ccc23)CN1C(=O)[C@@H](CC(=O)N1CCCCC1C(N)=O)C(C)(C)C)C(=O)OCC (stereo partly drawn) [Compound 45, ethyl 1-((2S,4R)-1-((2S)-2-tert-butyl-4-(2-carbamoylpiperidin-1-yl)-4-oxobutanoyl)-4-(7-methoxy-2-phenylquinolin-4-yloxy)pyrrolidine-2-carboxamido)-2-vinylcyclopropanecarboxylate] | 1 to 10 µM |
